Measured values published in US12612410B2 (CHILDREN'S HOSPITAL MEDICAL CENTER, priority 2020, dated 2026).

What follows are molecules tested against T1, FLT3 (Homo sapiens, UniProt P36888) (assay: Reaction Biology NanoBRET target engagement assay, FLT3). Details: transfected HEK-293 cells.
T1 sequence (P36888 27-993): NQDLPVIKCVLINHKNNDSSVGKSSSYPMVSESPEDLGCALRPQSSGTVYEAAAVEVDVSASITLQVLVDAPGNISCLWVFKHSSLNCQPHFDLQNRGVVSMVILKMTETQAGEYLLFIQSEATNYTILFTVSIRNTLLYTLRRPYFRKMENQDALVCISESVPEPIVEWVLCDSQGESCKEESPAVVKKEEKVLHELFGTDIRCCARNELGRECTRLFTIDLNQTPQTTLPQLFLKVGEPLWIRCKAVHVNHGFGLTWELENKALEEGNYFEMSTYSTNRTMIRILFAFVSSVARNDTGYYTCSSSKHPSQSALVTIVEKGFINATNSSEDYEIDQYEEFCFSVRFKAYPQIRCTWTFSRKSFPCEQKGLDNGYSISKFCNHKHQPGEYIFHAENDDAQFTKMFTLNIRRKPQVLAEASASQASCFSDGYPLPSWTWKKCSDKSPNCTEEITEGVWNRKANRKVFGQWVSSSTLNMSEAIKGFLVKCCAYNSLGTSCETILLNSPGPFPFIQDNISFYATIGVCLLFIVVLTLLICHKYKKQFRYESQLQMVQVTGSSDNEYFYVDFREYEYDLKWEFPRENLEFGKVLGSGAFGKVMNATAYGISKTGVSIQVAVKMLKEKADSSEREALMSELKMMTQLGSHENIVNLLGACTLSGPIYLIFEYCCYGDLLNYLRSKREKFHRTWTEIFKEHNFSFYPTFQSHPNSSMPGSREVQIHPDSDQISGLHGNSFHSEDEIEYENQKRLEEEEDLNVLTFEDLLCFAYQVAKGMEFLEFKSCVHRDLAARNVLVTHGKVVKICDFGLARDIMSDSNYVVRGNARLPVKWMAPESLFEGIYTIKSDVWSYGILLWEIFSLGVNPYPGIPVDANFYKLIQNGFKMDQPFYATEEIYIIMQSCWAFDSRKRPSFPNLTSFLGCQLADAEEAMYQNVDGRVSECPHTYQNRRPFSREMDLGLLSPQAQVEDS
Assay type: cell-based
Source text: The NanoBRET assay measures kinase engagement in real time in the context of the intact cell. Unlike the previously described biochemical kinase assay methodologies in Examples 26-27, the NanoBRET assay measures the binding and activity characteristics under equilibrium conditions using full-length kinases in the presence of cellular concentrations of ATP in live, uncompromised cells. As such, the assay provides a more relevant assessment of kinase potency and selectivity that would be expected to be observed in the native cellular environment, where potency is often considerably lower than that observed in the isolated biochemical assays (Vasta, J. D. et al., (2018) Cell Chem. Biol. 25, 206-214). The assay uses a Kinase-NanoLuc® fusion vector expressing a kinase protein to which a luciferase tag has been added, a cell-permeant fluorescent NanoBRET™ tracer, a NanoLuc® substrate, and an extracellular NanoLuc® inhibitor. Upon expression of the luciferase-tagged kinase, cells will produce a strong BRET signal only in the presence of the NanoBRET™ tracer. The extracellular NanoLuc® inhibitor ensures that the BRET signal observed emanates only from live cells. Because the BRET signal has tight distance constraints, addition of the test compound will decrease the BRET signal if the compound competes with the NanoBRET™ tracer for binding to the kinase domain. Under the appropriate tracer conditions established by the manufacturer, quantitative intracellular affinity and relative potency can then be determined using Mass Action model equations.
HEK-293 cells were purchased from ATCC. FuGENEHD Transfection Reagent, Kinase-NanoLucfusion plasmids, Transfection Carrier DNA, NanoBRETTracers and dilution buffer, NanoBRETNano-Glo Substrate, Extracellular NanoLucInhibitor were obtained from Promega.
Assays were conducted following Promega assay protocol with some modifications. HEK-293 Cells were transiently transfected with Kinase-NanoLucFusion Vector DNA by FuGENEHD Transfection Reagent. Testing compounds were delivered into 384 well assay plate by Echo 550 (Labcytelnc, Sunnyvale, CA). Transfected cells were harvested and mixed with NanoBRETTracer Reagent and dispensed into 384 well plates and incubated at 37° C. in 5% CO2 cell culture incubator for 1 hour. The NanoBRETNano-Glo Substrate plus Extracellular NanoLucInhibitor Solution were added into the wells of the assay plate and incubated for 2-3 minutes at room temperature. The donor emission wavelength (460 nm) and acceptor emission wavelength (600 nm) were measured in the EnVisionplate reader. The BRET Ratios were calculated. BRET Ratio=[(Acceptor sample÷Donor sample)−(Acceptor no-tracer control÷Donor no-tracer control)]. The IC50 values of compounds were calculated with Prism GraphPad program.
NanoBRET™ Target Engagement Assay Protocol
1. Transient Transfection of HEK-293 Cells NanoLuc® Fusion Vector DNA
• 1). Cultivate HEK-293 cells (70-80% confluence) appropriately prior to assay. Trypsinize and collect HEK-293 cells. • 2). Prepare lipid: DNA complexes as follows: • a. Prepare a […] solution of DNA in Opti-MEM without serum that consists of the following ratios of carrier DNA and DNA encoding NanoLuc® fusion. 9.0 µg/mL of Transfection Carrier DNA, […] of NanoLuc fusion vector DNA and 1 mL of Opti-MEM without phenol red. Mix thoroughly. • b. Add 30 l of FuGENE HD Transfection Reagent into each milliliter of DNA mixture to form lipid: DNA complex. • c. Mix by inversion 10 times. • d. Incubate at ambient temperature for 20 minutes to allow complexes to form. • 3). In a sterile, conical tube, mix 1 part of lipid: DNA complex with 20 parts of HEK-293 cells in suspension. Mix gently by inversion 5 times. • 4). Dispense cells+lipid: DNA complex into a sterile tissue culture dish and incubate for 22-24 hours. 2. Addition of Test Compounds (dry plate shooting)
Each test compound is delivered from the compound source plate to the wells of 384-well white NBS plate by Echo 550.
3. […]

Row | Structure (SMILES) | IC50
1 | CC(C)(C)c1cn2c(-c3nc(N[C@H]4CNC[C@@H]4F)c(F)cc3F)cnc2cn1 [Compound 125] | 0.937 µM
2 | CC(C)(C)c1cn2c(-c3cccc(N[C@H]4CNCC[C@@H]4F)n3)cnc2cn1 [Compound 130, 6-(6-(tert-butyl)imidazo[1,2-a]pyrazin-3-yl)-N-((3S,4S)-4-fluoropiperidin-3-yl)pyridin-2-amine] | 0.011 µM

More lines, in order of falling IC50, values ahead:

Row | IC50 | Structure (SMILES)
3 | 0.016 µM | CC(C)(C)c1cn2c(-c3nc(N[C@H]4CNCC[C@@H]4F)c(F)cc3F)cnc2cn1 [Compound 127, 6-(6-(tert-butyl)imidazo[1,2-a]pyrazin-3-yl)-3,5-difluoro-N-((3S,4S)-4-fluoropiperidin-3-yl)pyridin-2-amine]
4 | 0.012 µM | CC(C)(C)c1cn2c(-c3cccc(N[C@@H]4CCCNC4)n3)cnc2cn1 [Compound 129, (R)-6-(6-(tert-butyl)imidazo[1,2-a]pyrazin-3-yl)-N-(piperidin-3-yl)pyridin-2-amine]
5 | 0.008 µM | CC(C)(C)c1cn2c(-c3nc(N[C@@H]4CCCNC4)c(F)cc3F)cnc2cn1 [Compound 126, (R)-6-(6-(tert-butyl)imidazo[1,2-a]pyrazin-3-yl)-3,5-difluoro-N-(piperidin-3-yl)pyridin-2-amine]
